According to paper PMC11189555, “Aryl amino acetamides prevent Plasmodium falciparum ring development via targeting the lipid-transfer protein PfSTART1” (Nature Communications, 2024):
Several values for one entry are separate records, joined by “and”; a condition that tells them apart may be missing. Equal values may be shown once. Read-outs that look alike come from different tables or passages of the source.

Test system: SLI-WT parasites
Assay: Growth inhibition assay (72 h, LDH activity)
Type: cell-based, Plasmodium falciparum
Settings: for Growth inhibition, (1 - av / DMSO) x 100: Fig 2B source data, per biological replicate; for sample/DMSO: START(WT); for EC50: Plasmodium falciparum; for percent growth inhibition relative to DMSO control: START(WT) (SLI-WT)
Description: Parasite growth assays with inhibitory compounds were performed as per[11] and are fully described in the Supplementary Information.
Molecular biology and transfection of P. falciparum: Selection Linked Integration […]
To introduce the PfSTART1 mutations, the second half of the coding sequence of pfstart1 (PF3D7_0104200), was recodonised without introns to the bias of Saccharomyces cerevisiae containing either WT, N309K or N330K mutations, and synthesised as gBlock fragments (Integrated DNA Technologies). The first 819 bp of the 5′ native sequence of pfstart1 was amplified from gDNA, to form the 5’ homology block (5’ HB). The 3′ recodonised gBlock fragment comprising of the last 552 bp of either the WT, N309K or N330K pfstart1 to form the ‘recodon’ block (primers listed in Table S2). The 5’ HB and recodon products were sewn together by overlapping PCR to reconstitute the full coding sequence of pfstart1. These blocks (WT/N309K/N330K) were digested with BglII/PstI, and inserted into the parasite vector p-HA-2A-Neo-glmS
1. This plasmid contains an in -frame haemagglutinin (HA) epitope for protein identification and a P2A peptide (2A) to skip continuous peptide bond synthesis of a downstream neomycin resistance gene ( NeoR).
Parasites containing the transfected DNA were selected using 2.5 nM WR99210 (Jacobus). To select for parasites in which single crossover integration had occurred into the pfstart1 locus, parasites were treated with 400 μg/mL G418 (geniticin, Sigma Aldrich) for 14 days: only parasites that have integrated the construct into their genome expressed the neomycin resistance gene together with the PfSTART1 protein.
Parasite lines were cloned using limiting dilution. These clones were then tested on Western Blot (for correct HA-tagging and protein size), and correct integration and sequence were tested by PCR analysis: PCR on the gDNA was conducted using the primers START_5’UTR.F and START_Seq.R (Table S2). […]
Growth inhibition assays. Synchronised ring-stage parasites (0.3-0.6% parasitemia, 2% haematocrit) were grown for 72 h in a serial-dilution of the compound under […]
and compound 4. Note that M-833 was first purchased from MolPort (MolPort -002-267-916) then made in-house at WEHI: the differences observed in EC50s across experiments are attributed to the different batches of M -833. For some experiments, 0, 0.25 or 2.5 mM of glucosamine (GlcN) was also added. Experiments were set up in technical duplicates or triplicates. Following a freeze -thaw cycle, lactate dehydrogenase (LDH) activity was assessed as an indicator of parasite growt h 5. 30 μL of parasite culture was incubated for 30 min in the dark with 75 μL Malstat mixture (0.1 M Tris pH 9.0, 20 g/L lactic acid, pH 7.5, 0.2% Triton-X100, 0.5 g/L acetylpyridine adenine dinucleotide (APAD, Sigma), 200 μg/mL nitroblue tetrazolium (NBT; Sigma), 1 μg/mL phenozine ethosulfate (PES; Sigma)). Absorbance was then measured at 650 nm, transformed using the formula below, plotted against the logarithm of the concentrations, and a non-linear regression (log(inhibitor) vs. response, variable slope) was calculated using GraphPad Prism to assess the half-inhibitory […]
Growth inhibition % = (1 − average(sample)− average(uRBC)) ∗ 100 […]
The DMSO samples were also used to assess growth of parasite in the presence of 0.25 and 2.5 mM GlcN (normalised by DMSO in 0 mM GlcN).
Egress, invasion & recovery assay. To measure egress, invasion and follow up recovery in the presence of different compounds, we adapted the method developed in6, using Hyp1-Nluc parasites7. These parasites episomally express the exported PEXEL protein Hyp1 (PF3D7_0113300) tagged with a NanoLuc luciferase (NLuc) and were selected with 2.5 nM WR99210 (Jacobus). Highly synchronised schizonts were obtained using ML10 (LifeArc) and sorbitol synchronisation, and Percoll-purified (the culture was gently layered over 67% Percoll (Cytiva) in RPMI, and centrifuged for 15 min at 1500 g and the schizont layer was collected and washed). […]

Cc1cc(Cl)c(S(=O)(=O)N2CCCC2)cc1OCC(=O)NC1CCCCC1 [M-833]
Growth inhibition, (1 - av / DMSO) x 100 (SLI-WT, M-833 conc 0.00152416 (unit not given)): 17.8235% and 9.909% and 33.7545%
Growth inhibition, (1 - av / DMSO) x 100 (SLI-WT, M-833 conc 0.00457247 (unit not given)): 32.5193% and 13.2196% and 48.23%
Growth inhibition, (1 - av / DMSO) x 100 (SLI-WT, M-833 conc 0.0137174 (unit not given)): 64.9814% and 33.9327% and 65.9574%
Growth inhibition, (1 - av / DMSO) x 100 (SLI-WT, M-833 conc 0.0411523 (unit not given)): 82.6478% and 70.7748% and 84.2144%
Growth inhibition, (1 - av / DMSO) x 100 (SLI-WT, M-833 conc 0.123457 (unit not given)): 87.5893% and 87.6138% and 93.5055%
Growth inhibition, (1 - av / DMSO) x 100 (SLI-WT, M-833 conc 0.37037 (unit not given)): 88.1748% and 91.0017% and 95.8283%
Growth inhibition, (1 - av / DMSO) x 100 (SLI-WT, M-833 conc 1.11111 (unit not given)): 89.8172% and 92.0512% and 95.1872%
Growth inhibition, (1 - av / DMSO) x 100 (SLI-WT, M-833 conc 3.33333 (unit not given)): 91.3453% and 92.3754% and 94.862%
Growth inhibition, (1 - av / DMSO) x 100 (SLI-WT, M-833 conc 10 (unit not given)): 91.9594% and 91.8274% and 95.2708%
sample/DMSO (M-833 0.000508053 uM, 0 mM GlcN, biological replicates 1-3): 27.927 and 21.9727 and 25
sample/DMSO (M-833 0.000508053 uM, 0.25 mM GlcN, biological replicates 1-3): 42.2036 and 30.1606 and 32.1527
sample/DMSO (M-833 0.000508053 uM, 2.5 mM GlcN, biological replicates 1-3): 50.9566 and 35.9886 and 36.6839
sample/DMSO (M-833 0.00152416 uM, 0 mM GlcN, biological replicates 1-4): 49.0407 and 28.0532 and 35.8147 and 28.6219
sample/DMSO (M-833 0.00152416 uM, 0.25 mM GlcN, biological replicates 1-4): 60.3487 and 47.5652 and 43.8309
sample/DMSO (M-833 0.00152416 uM, 2.5 mM GlcN, biological replicates 1-4): 64.731 and 51.7963 and 44.8107 and 40.64
sample/DMSO (M-833 0.00457247 uM, 0 mM GlcN, biological replicates 1-4): 71.0997 and 42.5489 and 51.2149 and 44.2813
sample/DMSO (M-833 0.00457247 uM, 0.25 mM GlcN, biological replicates 1-4): 74.8396 and 65.6157 and 57.2049
sample/DMSO (M-833 0.00457247 uM, 2.5 mM GlcN, biological replicates 1-4): 78.1904 and 72.0515 and 57.0638 and 53.24
sample/DMSO (M-833 0.0137174 uM, 0 mM GlcN, biological replicates 1-4): 83.6593 and 61.2338 and 74.7499 and 69.6413
sample/DMSO (M-833 0.0137174 uM, 0.25 mM GlcN, biological replicates 1-4): 88.8842 and 81.3121 and 70.4954
sample/DMSO (M-833 0.0137174 uM, 2.5 mM GlcN, biological replicates 1-4): 87.5985 and 84.0064 and 69.7195 and 63.44
sample/DMSO (M-833 0.0411523 uM, 0 mM GlcN, biological replicates 1-4): 94.394 and 79.7192 and 91.2101 and 80.3728
sample/DMSO (M-833 0.0411523 uM, 0.25 mM GlcN, biological replicates 1-4): 94.2399 and 92.19 and 82.349
sample/DMSO (M-833 0.0411523 uM, 2.5 mM GlcN, biological replicates 1-4): 91.9649 and 89.5193 and 74.7012 and 67.08
sample/DMSO (M-833 0.123457 uM, 0 mM GlcN, biological replicates 1-4): 97.6883 and 88.7403 and 94.7713 and 86.5433
sample/DMSO (M-833 0.123457 uM, 0.25 mM GlcN, biological replicates 1-4): 95.7043 and 95.071 and 88.6476
sample/DMSO (M-833 0.123457 uM, 2.5 mM GlcN, biological replicates 1-4): 92.7752 and 92.3191 and 78.8024 and 71.4
EC50 (72 h, Fig 2B, SLI-WT, 72 h, n = 3, unit only in x-axis title, read-out: EC50 (95% confidence interval)): 13.4 nM
EC50 (Fig 3C, SLI-WT, 0 mM GlcN, n = 4, unit on plot axis, read-out: EC50 M-833 (95% confidence interval)): 5.9 nM
EC50 (Fig 3C, SLI-WT, 0.25 mM GlcN, n = 4, unit on plot axis, read-out: EC50 M-833 (95% confidence interval)): 3.1 nM
EC50 (Fig 3C, SLI-WT, 2.5 mM GlcN, n = 4, unit on plot axis, read-out: EC50 M-833 (95% confidence interval)): 2.6 nM
fold more sensitive compared to the parental 3D7 parasites (SLI-WT, Fig 2B): 7 fold
fold reduction of EC50 on addition of 2.5 mM GlcN (SLI-WT, PfSTART1 knock-down): 2.3 fold
percent growth inhibition relative to DMSO control (0 mM GlcN, M-833 0.37037 uM, biological replicates 1-4): 99.0454 and 90.3879 and 95.7242 and 88.5343
percent growth inhibition relative to DMSO control (0 mM GlcN, M-833 1.11111 uM, biological replicates 1-4): 99.2981 and 91.8212 and 96.4269 and 89.5933
percent growth inhibition relative to DMSO control (0 mM GlcN, M-833 3.33333 uM, biological replicates 1-4): 98.5962 and 92.1167 and 96.403 and 89.8334
percent growth inhibition relative to DMSO control (0 mM GlcN, M-833 10 uM, biological replicates 1-4): 99.0547 and 92.0133 and 96.7127 and 88.7461
percent growth inhibition relative to DMSO control (0.25 mM GlcN, M-833 0.37037 uM, biological replicates 1-4): 96.4435 and 95.9038 and 89.675
percent growth inhibition relative to DMSO control (0.25 mM GlcN, M-833 1.11111 uM, biological replicates 1-4): 96.5272 and 97.1616 and 91.872
percent growth inhibition relative to DMSO control (0.25 mM GlcN, M-833 3.33333 uM, biological replicates 1-4): 96.834 and 96.2182 and 91.3374
percent growth inhibition relative to DMSO control (0.25 mM GlcN, M-833 10 uM, biological replicates 1-4): 97.0851 and 96.6856 and 92.1644
percent growth inhibition relative to DMSO control (2.5 mM GlcN, M-833 0.37037 uM, biological replicates 1-4): 94.0131 and 93.8677 and 81.9097 and 71.68
percent growth inhibition relative to DMSO control (2.5 mM GlcN, M-833 1.11111 uM, biological replicates 1-4): 94.8008 and 94.5862 and 84.2496 and 73.4
percent growth inhibition relative to DMSO control (2.5 mM GlcN, M-833 3.33333 uM, biological replicates 1-4): 94.7333 and 94.0783 and 84.1867 and 73.32
percent growth inhibition relative to DMSO control (2.5 mM GlcN, M-833 10 uM, biological replicates 1-4): 95.2735 and 94.4252 and 87.0927 and 74.36
